Source: patent publication US10688084B2 (priority 2016, dated 2020)
Read-outs that look alike come from different tables or passages of the source.

Assays:
cyclooxygenase (COX) = experiment: COX activity assay (fluorometric kit, peroxidase activity) with skin fibroblast (HSF) cell lysate; type: biochemical; details: tested in presence of SC560 or celecoxib
Wistar rats [1] = experiment: Acute (carrageenin) paw edema, anti-inflammatory activity in vivo; parameters: species or system rat; details: for ED50: Rattus norvegicus, read-out: ED50 acute inflammation; for Paw volume 0 / Paw volume 3 h: in mL (unit assumed); for Anti-inflammatory effect, %: control = 100.00
Protocol: The experiment was carried out using female and male Wistar rats aged 6-7 weeks with a body mass of 180-220 g. The number of animals in each group was 10.
The acute inflammatory reaction (edema) was reproduced by subplantar (under plantar or plantar aponeurosis) administration of 0.1 ml of 1% carrageenin solution (sulfated polysaccharide from Irish sea moss). The severity of the inflammatory reaction was assessed 3 hours after the induction of inflammation by a change in the volume of the paw (oncometric). The substance of formula I was administered into the stomach with the probe 1 hour before the introduction of the 1% solution of carrageenin. A 0.5% Tween-80 solution was used as a negative control. The anti-inflammatory effect, assessed by a decrease in edema, was expressed as a percentage of the control. According to the results of the action of four doses of the analyte, the calculation of ED50 was performed.
The introduction to rats was carried out in the amount of no more than 1 ml/100 g. The concentration of the resulting solution was 5 mg/ml.
Animals were euthanized by inhalation of carbon dioxide.

Wistar rats [2] = experiment: Gastric toxicity (ulcerogenic effect), single intragastric administration, 4-point scale; type: in vivo, rat; details: for Gastrotoxic effect (averaged), points: 2000 mg/kg single intragastric, 3 hours
Protocol: In the study of gastric toxicity were taken female and male Wistar rats aged 6-7 weeks, with a body mass of 180-220 g. The number of animals in each group was 10.
Three hours after the administration of the suspension of the test substance at a dose of 2000 mg/kg (in 0.5% aqueous solution of Tween-80), the animals were euthanized; their stomachs were removed, dissected along the lesser curvature, and washed in physiological solution to remove the contents.
Evaluation of gastric toxicity was performed on a 4-point scale:
1—single minor injuries (1 or 2 point hemorrhages);
2—multiple injuries (erosion, spot hemorrhages);
3—significant and multiple injuries of the mucosa (erosion, hemorrhage);
4—gross injuries covering the entire surface of the mucosa (massive hemorrhages, erosion, perforations).
According to the results of the assessment, UD50 was determined—the dose of the tested substance causing gastrotoxic (ulcerogenic) effect corresponding to 2 points.
The introduction to rats is carried out in the amount of no more than 5 ml/200 g.
Animals were euthanized by carbon dioxide inhalation method.
At a single introduction of formula I compound at a dose of 2000 mg/kg, the gastrotoxic effect corresponded to an average of 0.6 points in male rats and 0.4 in females (Table 4).

Wistar rats [3] = type: in vivo
Protocol: In the study of antipyretic properties of the formula I compound, were taken female and male Wistar rats aged 6-7 weeks, with a body mass of 180-220 g. The number of animals in each group was 10.
The febrile reaction was caused by subcutaneous administration of a 20% suspension of baking yeast. The rectal temperature was measured with an electrothermometer prior to the introduction of yeast and 18 hours after it (the difference of these measurements is the estimated hyperthermic reaction). The preparation was administered to animals at the peak of hyperthermia once (after 18 hours). The antipyretic effect was evaluated by hyperthermia decrease 2 hours after the injection of the test substance, and then the effect dynamics was recorded at hourly intervals for 7 hours.
The introduction to rats was carried out in the amount of no more than 1 ml/100 g. The concentration of the resulting solution was 7.5 mg/ml.
The difference in temperature after preparation administration and after 18 hours of induction with yeast was taken as the parameter of hyperthermia decrease.
Animals were observed individually after administration throughout the study. […] Wilcoxon nonparametric criterion was used for statistical comparison of experimental groups. Differences were determined at the 0.05 level of significance. The statistical analysis was carried out using the R-studio program.

[4] = mean value without sex distinction
[5] = female rats, 5 mg/kg intragastric
[6] = female rats, 10 mg/kg intragastric
[7] = female rats, 20 mg/kg intragastric
[8] = female rats, 50 mg/kg intragastric
[9] = male rats, 5 mg/kg intragastric
[10] = male rats, 10 mg/kg intragastric
[11] = male rats, 20 mg/kg intragastric
[12] = male rats, 50 mg/kg intragastric

COc1ccc2cc([C@H](C)C(=O)OCc3cnc(C)c(OC(=O)[C@@H](C)c4ccc5cc(OC)ccc5c4)c3COC(=O)[C@@H](C)c3ccc4cc(OC)ccc4c3)ccc2c1 [Compound of formula I, 3-((S)-2-(6-methoxynaphth-2-yl)propanoiloxy)-4,5-bis (((S)-2-(6-methoxinaphtht-2-yl)propanoiloxy)methyl)-2-methylpyridinium (S)-2-(6-methoxynaphth-2-yl) propanoate]
COX isoform preference (cyclooxygenase (COX)): preferential inhibitory activity against the isoform of COX-2 | ED50 (Wistar rats [1]; females): 14 mg/kg | ED50 (Wistar rats [1]; males): 23 mg/kg | ED50 (Wistar rats [1]; [4]): 18.5 mg/kg | Inflammatory edema decreased by, vs control group (Wistar rats [1]; female rats, 5 mg/kg): 13.37% | Paw volume 0 (Wistar rats [1]; [5]): 1.00 ± 0.03 | Paw volume 3 h (Wistar rats [1]; [5]): 1.94 ± 0.20 | Anti-inflammatory effect, % (Wistar rats [1]; female rats, 5 mg/kg): 86.63 ± 17.71% | Inflammatory edema decreased by, vs control group (Wistar rats [1]; female rats, 10 mg/kg): 38.64% | Paw volume 0 (Wistar rats [1]; [6]): 0.96 ± 0.06 | Paw volume 3 h (Wistar rats [1]; [6]): 1.60 ± 0.16 | Anti-inflammatory effect, % (Wistar rats [1]; female rats, 10 mg/kg): 61.36 ± 17.12% | Inflammatory edema decreased by, vs control group (Wistar rats [1]; female rats, 20 mg/kg): 67.89% | Paw volume 0 (Wistar rats [1]; [7]): 0.91 ± 0.09 | Paw volume 3 h (Wistar rats [1]; [7]): 1.23 ± 0.20 | Anti-inflammatory effect, % (Wistar rats [1]; female rats, 20 mg/kg): 32.11 ± 15.06% | Inflammatory edema decreased by, vs control group (Wistar rats [1]; female rats, 50 mg/kg): 65.47% | Paw volume 0 (Wistar rats [1]; [8]): 0.91 ± 0.05 | Paw volume 3 h (Wistar rats [1]; [8]): 1.26 ± 0.23 | Anti-inflammatory effect, % (Wistar rats [1]; female rats, 50 mg/kg): 34.53 ± 18.52% | Inflammatory edema decreased by, vs control group (Wistar rats [1]; male rats, 5 mg/kg): 12.39% | Paw volume 0 (Wistar rats [1]; [9]): 0.89 ± 0.07 | Paw volume 3 h (Wistar rats [1]; [9]): 1.87 ± 0.21 | Anti-inflammatory effect, % (Wistar rats [1]; male rats, 5 mg/kg): 87.61 ± 19.75% | Inflammatory edema decreased by, vs control group (Wistar rats [1]; male rats, 10 mg/kg): 23.57% | Paw volume 0 (Wistar rats [1]; [10]): 0.93 ± 0.06 | Paw volume 3 h (Wistar rats [1]; [10]): 1.84 ± 0.23 | Anti-inflammatory effect, % (Wistar rats [1]; male rats, 10 mg/kg): 76.43 ± 22.74% | Inflammatory edema decreased by, vs control group (Wistar rats [1]; male rats, 20 mg/kg): 51.25% | Paw volume 0 (Wistar rats [1]; [11]): 0.93 ± 0.05 | Paw volume 3 h (Wistar rats [1]; [11]): 1.51 ± 0.16 | Anti-inflammatory effect, % (Wistar rats [1]; male rats, 20 mg/kg): 48.75 ± 16.39% | Inflammatory edema decreased by, vs control group (Wistar rats [1]; male rats, 50 mg/kg): 62.34% | Paw volume 0 (Wistar rats [1]; [12]): 1.04 ± 0.20 | Paw volume 3 h (Wistar rats [1]; [12]): 1.54 ± 0.45 | Anti-inflammatory effect, % (Wistar rats [1]; male rats, 50 mg/kg): 37.66 ± 19.16% | ED50 acute inflammation (Wistar rats [1]; [4]): 19 mg/kg | UD50 (Wistar rats [2]; females): >2000 mg/kg | Gastrotoxic effect (averaged), points (Wistar rats [2]; females): 0.4 points | UD50 (Wistar rats [2]; males): >2000 mg/kg | Gastrotoxic effect (averaged), points (Wistar rats [2]; males): 0.6 points | Times less gastrotoxic than naproxen (UD50) (Wistar rats [2]; vs naproxen): 40 times | UD50 (Wistar rats [2]; without sex distinction): >2000 mg/kg | UD50 (Wistar rats [2]; without sex distinction, listed as compound of formula I): > 2000 mg/kg | Antipyretic action (Wistar rats [3]; 20 mg/kg, both males and females): no antipyretic action was observed | Δ t after 2 hours, (M ± SD) (Wistar rats [3]; 20 mg/kg, females): −0.07 | Δ t after 3 hours, (M ± SD) (Wistar rats [3]; 20 mg/kg, females): −0.27 | Δ t after 4 hours, (M ± SD) (Wistar rats [3]; 20 mg/kg, females): −0.35 | Δ t after 5 hours, (M ± SD) (Wistar rats [3]; 20 mg/kg, females): 0.34 | Δ t after 6 hours, (M ± SD) (Wistar rats [3]; 20 mg/kg, females): −0.01 | Δ t after 7 hours, (M ± SD) (Wistar rats [3]; 20 mg/kg, females): −0.08 | Δ t after 2 hours, (M ± SD) (Wistar rats [3]; 20 mg/kg, males): 0.13 | Δ t after 3 hours, (M ± SD) (Wistar rats [3]; 20 mg/kg, males): 0.24 | Δ t after 4 hours, (M ± SD) (Wistar rats [3]; 20 mg/kg, males): 0.02 | Δ t after 5 hours, (M ± SD) (Wistar rats [3]; 20 mg/kg, males): 0.1 | Δ t after 6 hours, (M ± SD) (Wistar rats [3]; 20 mg/kg, males): −0.21 | Δ t after 7 hours, (M ± SD) (Wistar rats [3]; 20 mg/kg, males): 0.04 | Level of temperature decrease (Wistar rats [3]; 50 mg/kg, 3-4 hours after administration): 0.34-0.97 °C | Δ t after 2 hours, (M ± SD) (Wistar rats [3]; 50 mg/kg, females): 0.87 | Δ t after 3 hours, (M ± SD) (Wistar rats [3]; 50 mg/kg, females): 0.91 | Δ t after 4 hours, (M ± SD) (Wistar rats [3]; 50 mg/kg, females): 0.66 | Δ t after 5 hours, (M ± SD) (Wistar rats [3]; 50 mg/kg, females): 0.53 | Δ t after 6 hours, (M ± SD) (Wistar rats [3]; 50 mg/kg, females): 0.61 | Δ t after 7 hours, (M ± SD) (Wistar rats [3]; 50 mg/kg, females): 0.5 | Temperature lower than before the introduction by (Wistar rats [3]; 50 mg/kg, females, 2 and 3 hours after introduction): 0.9 °C | Temperature decrease (Wistar rats [3]; 50 mg/kg, females, 4, 5, 6 and 7 hours after introduction): 0.5-0.7 °C | Δ t after 2 hours, (M ± SD) (Wistar rats [3]; 50 mg/kg, males): 0.22 | Δ t after 3 hours, (M ± SD) (Wistar rats [3]; 50 mg/kg, males): 0.36 | Δ t after 4 hours, (M ± SD) (Wistar rats [3]; 50 mg/kg, males): 0.39 | Δ t after 5 hours, (M ± SD) (Wistar rats [3]; 50 mg/kg, males): 0.25 | Δ t after 6 hours, (M ± SD) (Wistar rats [3]; 50 mg/kg, males): 0.11 | Δ t after 7 hours, (M ± SD) (Wistar rats [3]; 50 mg/kg, males): 0.09 | Δ t after 2 hours, (M ± SD) (Wistar rats [3]; 75 mg/kg, females): 0.9 | Δ t after 3 hours, (M ± SD) (Wistar rats [3]; 75 mg/kg, females): 0.96 | Δ t after 4 hours, (M ± SD) (Wistar rats [3]; 75 mg/kg, females): 1.39 | Δ t after 5 hours, (M ± SD) (Wistar rats [3]; 75 mg/kg, females): 1.52 | Δ t after 6 hours, (M ± SD) (Wistar rats [3]; 75 mg/kg, females): 1.51 | Δ t after 7 hours, (M ± SD) (Wistar rats [3]; 75 mg/kg, females): 1.17 | Δ t after 2 hours, (M ± SD) (Wistar rats [3]; 75 mg/kg, males): 0.76 | Δ t after 3 hours, (M ± SD) (Wistar rats [3]; 75 mg/kg, males): 1.15 | Δ t after 4 hours, (M ± SD) (Wistar rats [3]; 75 mg/kg, males): 1.38 | Δ t after 5 hours, (M ± SD) (Wistar rats [3]; 75 mg/kg, males): 1.31 | Δ t after 6 hours, (M ± SD) (Wistar rats [3]; 75 mg/kg, males): 0.96 | Δ t after 7 hours, (M ± SD) (Wistar rats [3]; 75 mg/kg, males): 0.92 | Temperature less than before the introduction for (Wistar rats [3]; 75 mg/kg, throughout the experiment): 0.76-1.5 °C
